Data on one molecule can be found in patent US6566348B1, “Pesticides based on cyclic polysiloxanes” (Bayer Aktiengesellschaft, priority 1995, dated 2003).

Molecules are shown by their SMILES.

This series can be described thus: Crystallizing out at low temperatures. In kind it is physicochemical.

For the molecule `C[Si]1(C)O[Si](C)(C)O[Si](C)(C)O[Si](C)(C)O[Si](C)(C)O1` [Decamethylcyclopentasiloxane, decamethylcyclopentasiloxane], the “stability at low temperatures” value is “stable at low temperatures, without crystallizing out”.
